Data: patent publication US20240101540A1, “TARGETED PROTEIN DEGRADATION OF PARP14 FOR USE IN THERAPY” (Ribon Therapeutics, Inc., priority 2022, published 2024)
Structures can show the parent of a compound that is named as a salt. Where two headings read alike, the source gives them in different places.

Molecular target: T1, catalytic domain of human PARP14 (residues 1611 to 1801) with NanoLuc tag (Homo sapiens, UniProt Q460N5)
T1 construct: expressed in transfected cells; host or cells: HEK-293T cells (ATCC), pcDNA3.1(-) vector
T1 sequence (Q460N5 1611-1801): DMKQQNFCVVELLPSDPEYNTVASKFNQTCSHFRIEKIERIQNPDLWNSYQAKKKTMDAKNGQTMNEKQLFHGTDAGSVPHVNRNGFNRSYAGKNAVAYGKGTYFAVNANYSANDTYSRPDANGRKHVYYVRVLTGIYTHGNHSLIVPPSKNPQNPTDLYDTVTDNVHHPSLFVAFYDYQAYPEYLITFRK
Assay: NanoLuc assay for the degradation of PARP14 (NanoLuc-tagged PARP14 overexpressed in HEK-293T cells, 2 hours)
Assay type: cell-based
Conditions: Assay A (Example A): NanoLuc-tagged PARP14 degradation in HEK-293T cells

DC50 (read-out: DC50)	SMILES	DC50
< 100 nM	O=C1CCC(N2Cc3c(cccc3N3CC(CN4CCC(COc5cc(F)c6c(=O)[nH]c(CSC7CCOCC7)nc6c5)CC4)C3)C2=O)C(=O)N1 (stereo not drawn) [Example 38, 3-(4-(3-((4-(((5-fluoro-4-oxo-2-(((tetrahydro-2H-pyran-4-yl)thio)methyl)-3,4-dihydroquinazolin-7-yl)oxy)methyl)piperidin-1-yl)methyl)azetidin-1-yl)-1-oxoisoindolin-2-yl)piperidine-2,6-dione]	
< 100 nM	O=C1CCC(N2C(=O)c3cccc(N4CCN(CC5CCN(C(=O)CN6CCC(COc7cc(F)c8c(=O)[nH]c(CCC9CCOCC9)nc8c7)CC6)CC5)CC4)c3C2=O)C(=O)N1 (stereo not drawn) [Example 39, 2-(2,6-dioxopiperidin-3-yl)-4-(4-((1-(2-(4-(((5-fluoro-4-oxo-2-(2-(tetrahydro-2H-pyran-4-yl)ethyl)-3,4-dihydroquinazolin-7-yl)oxy)methyl)piperidin-1-yl)acetyl)piperidin-4-yl)methyl)piperazin-1-yl)isoindoline-1,3-dione]	
< 100 nM	O=C1CCC(N2C(=O)c3cccc(N4CC(N5CCC(COc6cc(F)c7c(=O)[nH]c(CSC8CCOCC8)nc7c6)CC5)C4)c3C2=O)C(=O)N1 (stereo not drawn) [Example 40, 2-(2,6-dioxopiperidin-3-yl)-4-(3-(4-(((5-fluoro-4-oxo-2-(((tetrahydro-2H-pyran-4-yl)thio)methyl)-3,4-dihydroquinazolin-7-yl)oxy)methyl)piperidin-1-yl)azetidin-1-yl)isoindoline-1,3-dione]	
< 100 nM	O=C1CCC(N2C(=O)c3ccc(N4CC(N5CCC(COc6cc(F)c7c(=O)[nH]c(CSC8CCOCC8)nc7c6)CC5)C4)cc3C2=O)C(=O)N1 (stereo not drawn) [Example 41, 2-(2,6-dioxopiperidin-3-yl)-5-(3-(4-(((5-fluoro-4-oxo-2-(((tetrahydro-2H-pyran-4-yl)thio)methyl)-3,4-dihydroquinazolin-7-yl)oxy)methyl)piperidin-1-yl)azetidin-1-yl)isoindoline-1,3-dione]	
< 100 nM	O=C1CCC(N2C(=O)c3ccc(/C=C/CN4CCC(COc5cc(F)c6c(=O)[nH]c(CSC7CCOCC7)nc6c5)CC4)cc3C2=O)C(=O)N1 (stereo not drawn) [Example 43, (E)-2-(2,6-dioxopiperidin-3-yl)-5-(3-(4-(((5-fluoro-4-oxo-2-(((tetrahydro-2H-pyran-4-yl)thio)methyl)-3,4-dihydroquinazolin-7-yl)oxy)methyl)piperidin-1-yl)prop-1-en-1-yl)isoindoline-1,3-dione]	
< 100 nM	O=C1CCC(N2Cc3cc(N4CCN(CCN5CCC(COc6cc(F)c7c(=O)[nH]c(CSC8CCOCC8)nc7c6)CC5)CC4)ccc3C2=O)C(=O)N1 (stereo not drawn) [Example 59, 3-(5-(4-(2-(4-(((5-fluoro-4-oxo-2-(((tetrahydro-2H-pyran-4-yl)thio)methyl)-3,4-dihydroquinazolin-7-yl)oxy)methyl)piperidin-1-yl)ethyl)piperazin-1-yl)-1-oxoisoindolin-2-yl)piperidine-2,6-dione]	
< 100 nM	O=C1CCC(N2Cc3c(cccc3N3CCN(CCN4CCC(COc5cc(F)c6c(=O)[nH]c(CSC7CCOCC7)nc6c5)CC4)CC3)C2=O)C(=O)N1 (stereo not drawn) [Example 60, 3-(4-(4-(2-(4-(((5-fluoro-4-oxo-2-(((tetrahydro-2H-pyran-4-yl)thio)methyl)-3,4-dihydroquinazolin-7-yl)oxy)methyl)piperidin-1-yl)ethyl)piperazin-1-yl)-1-oxoisoindolin-2-yl)piperidine-2,6-dione]	
< 100 nM	O=C1CCC(N2C(=O)c3cccc(N4CCN(CCN5CCC(COc6cc(F)c7c(=O)[nH]c(CSC8CCOCC8)nc7c6)CC5)CC4)c3C2=O)C(=O)N1 (stereo not drawn) [Example 61, 2-(2,6-dioxopiperidin-3-yl)-4-(4-(2-(4-(((5-fluoro-4-oxo-2-(((tetrahydro-2H-pyran-4-yl)thio)methyl)-3,4-dihydroquinazolin-7-yl)oxy)methyl)piperidin-1-yl)ethyl)piperazin-1-yl)isoindoline-1,3-dione]	

The remaining lines, values behind:

SMILES	DC50 (read-out: DC50)	DC50
O=C1CCC(N2C(=O)c3ccc(N4CC(N5CCC(COc6cc(F)c7c(=O)[nH]c(CSC8CCOCC8)nc7c6)C(F)(F)C5)C4)cc3C2=O)C(=O)N1 (stereo not drawn) [Example 42, 5-(3-(3,3-difluoro-4-(((5-fluoro-4-oxo-2-(((tetrahydro-2H-pyran-4-yl)thio)methyl)-3,4-dihydroquinazolin-7-yl)oxy)methyl)piperidin-1-yl)azetidin-1-yl)-2-(2,6-dioxopiperidin-3-yl)isoindoline-1,3-dione]	< 100 nM	
CN1CCC(SCc2nc3cc(OCC4CCN(c5ccc6c(c5)C(=O)N(C5CCC(=O)NC5=O)C6=O)CC4)cc(F)c3c(=O)[nH]2)CC1 (stereo not drawn) [Example 44, 2-(2,6-dioxopiperidin-3-yl)-5-(4-(((5-fluoro-2-(((1-methylpiperidin-4-yl)thio)methyl)-4-oxo-3,4-dihydroquinazolin-7-yl)oxy)methyl)piperidin-1-yl)isoindoline-1,3-dione]	< 100 nM	
O=C1CCC(c2ccc(NCC#CCN3CCC(COc4cc(F)c5c(=O)[nH]c(CSC6CCOCC6)nc5c4)CC3)cc2)C(=O)N1 (stereo not drawn) [Example 45, 3-(4-((4-(4-(((5-fluoro-4-oxo-2-(((tetrahydro-2H-pyran-4-yl)thio)methyl)-3,4-dihydroquinazolin-7-yl)oxy)methyl)piperidin-1-yl)but-2-yn-1-yl)amino)phenyl)piperidine-2,6-dione]	< 100 nM	
O=C1CCC(Nc2ccc(OCC3CC(N4CCC(COc5cc(F)c6c(=O)[nH]c(CSC7CCOCC7)nc6c5)CC4)C3)cc2)C(=O)N1 (stereo not drawn) [Example 46, 3-((4-((3-(4-(((5-fluoro-4-oxo-2-(((tetrahydro-2H-pyran-4-yl)thio)methyl)-3,4-dihydroquinazolin-7-yl)oxy)methyl)piperidin-1-yl)cyclobutyl)methoxy)phenyl)amino)piperidine-2,6-dione]	< 100 nM	
O=C1CCC(Nc2ccc(OC3CC(CN4CCC(COc5cc(F)c6c(=O)[nH]c(CSC7CCOCC7)nc6c5)CC4)C3)cc2)C(=O)N1 (stereo not drawn) [Example 47, 3-({4-[3-({4-[({5-fluoro-2-[(oxan-4-ylsulfanyl)methyl]-4-oxo-3H-quinazolin-7-yl}oxy)methyl]piperidin-1-yl}methyl)cyclobutoxy]phenyl}amino)piperidine-2,6-dione]	< 100 nM	
O=C1CCC(Nc2ccc(N3CCN(CCN4CCC(COc5cc(F)c6c(=O)[nH]c(CSC7CCOCC7)nc6c5)CC4)CC3)cc2)C(=O)N1 (stereo not drawn) [Example 48, 3-((4-(4-(2-(4-(((5-fluoro-4-oxo-2-(((tetrahydro-2H-pyran-4-yl)thio)methyl)-3,4-dihydroquinazolin-7-yl)oxy)methyl)piperidin-1-yl)ethyl)piperazin-1-yl)phenyl)amino)piperidine-2,6-dione]		< 100 nM
O=C1CCC(Nc2ccc(C3CCN(CCN4CCC(COc5cc(F)c6c(=O)[nH]c(CSC7CCOCC7)nc6c5)CC4)CC3)cc2)C(=O)N1 (stereo not drawn) [Example 49, 3-((4-(1-(2-(4-(((5-fluoro-4-oxo-2-(((tetrahydro-2H-pyran-4-yl)thio)methyl)-3,4-dihydroquinazolin-7-yl)oxy)methyl)piperidin-1-yl)ethyl)piperidin-4-yl)phenyl)amino)piperidine-2,6-dione]	< 100 nM	
O=C1CCC(Nc2ccc(N3CCN(CCN4CCC(COc5cc(F)c6c(=O)[nH]c(CSC7CCOCC7)nc6c5)CC4)CC3)c(C(F)(F)F)c2)C(=O)N1 (stereo not drawn) [Example 50, 3-((4-(4-(2-(4-(((5-fluoro-4-oxo-2-(((tetrahydro-2H-pyran-4-yl)thio)methyl)-3,4-dihydroquinazolin-7-yl)oxy)methyl)piperidin-1-yl)ethyl)piperazin-1-yl)-3-(trifluoromethyl)phenyl)amino)piperidine-2,6-dione]	< 100 nM	
O=C1CCC(Nc2ccc(N3CC(N4CCC(COc5cc(F)c6c(=O)[nH]c(CSC7CCOCC7)nc6c5)CC4)C3)cc2)C(=O)N1 (stereo not drawn) [Example 51, 3-((4-(3-(4-(((5-fluoro-4-oxo-2-(((tetrahydro-2H-pyran-4-yl)thio)methyl)-3,4-dihydroquinazolin-7-yl)oxy)methyl)piperidin-1-yl)azetidin-1-yl)phenyl)amino)piperidine-2,6-dione]	< 100 nM	
O=C1CCC(Nc2ccc(N3CC(N4CCC(COc5cc(F)c6c(=O)[nH]c(CSC7CCOCC7)nc6c5)C(F)(F)C4)C3)cc2)C(=O)N1 (stereo not drawn) [Example 52, 3-((4-(3-(3,3-difluoro-4-(((5-fluoro-4-oxo-2-(((tetrahydro-2H-pyran-4-yl)thio)methyl)-3,4-dihydroquinazolin-7-yl)oxy)methyl)piperidin-1-yl)azetidin-1-yl)phenyl)amino)piperidine-2,6-dione formate salt]	< 100 nM	
O=C1CCC(Nc2ccc(N3CC(CN4CCC(COc5cc(F)c6c(=O)[nH]c(CSC7CCOCC7)nc6c5)CC4)C3)cc2)C(=O)N1 (stereo not drawn) [Example 53, 3-((4-(3-((4-(((5-fluoro-4-oxo-2-(((tetrahydro-2H-pyran-4-yl)thio)methyl)-3,4-dihydroquinazolin-7-yl)oxy)methyl)piperidin-1-yl)methyl)azetidin-1-yl)phenyl)amino)piperidine-2,6-dione]	< 100 nM	
O=C1CCN(c2cccc(N3CC(CN4CCC(COc5cc(F)c6c(=O)[nH]c(CSC7CCOCC7)nc6c5)CC4)C3)c2)C(=O)N1 [Example 54, 1-(3-(3-((4-(((5-fluoro-4-oxo-2-(((tetrahydro-2H-pyran-4-yl)thio)methyl)-3,4-dihydroquinazolin-7-yl)oxy)methyl)piperidin-1-yl)methyl)azetidin-1-yl)phenyl)dihydropyrimidine-2,4(1H,3H)-dione formate salt]	< 100 nM	
O=C1CCC(Nc2ccc(OCCN3CCC(COc4cc(F)c5c(=O)[nH]c(CSC6CCOCC6)nc5c4)CC3)cc2)C(=O)N1 (stereo not drawn) [Example 58, 3-((4-(2-(4-(((5-fluoro-4-oxo-2-(((tetrahydro-2H-pyran-4-yl)thio)methyl)-3,4-dihydroquinazolin-7-yl)oxy)methyl)piperidin-1-yl)ethoxy)phenyl)amino)piperidine-2,6-dione]	< 100 nM	
